Source: patent US11780901B2, “Analogues of parathyroid hormone (1-34) that function as agonists of the parathyroid hormone receptor-1 and display modified activity profiles” (Wisconsin Alumni Research Foundation, priority 2013, dated 2023)
Like-named read-outs stand apart in the source and are kept apart here. Starred links: 1 amine or outer side, 2 acyl side, 3 side chain; linkers in the order of their positions; H or OH if unused. Non-standard residues stand in square brackets, D forms with d. Residues, ends and D or L forms follow the SMILES beside them. *: point of attachment. X4 = O=C(O)CC[C@@H](CN[*:1])C(=O)[*:2]; X6 = O=C(O)CC[C@H](CN[*:1])C(=O)[*:2]; X11 = NC[C@H](CO)C(=O)*

What was measured:
PTHR1 = molecular target: T1, PTHR1 (Homo sapiens, UniProt Q03431); test: PTHR1 activation, cAMP production (GloSensor) in HEK293 cells; assay type: cell-based; design: expressed in transfected cells; conditions: for PTHR1 Activation: Derivative EC50/PTH EC50: normalized to EC50 of PTH(1-34)-NH2 ([…]), cAMP production
T1 sequence (Q03431 27-593): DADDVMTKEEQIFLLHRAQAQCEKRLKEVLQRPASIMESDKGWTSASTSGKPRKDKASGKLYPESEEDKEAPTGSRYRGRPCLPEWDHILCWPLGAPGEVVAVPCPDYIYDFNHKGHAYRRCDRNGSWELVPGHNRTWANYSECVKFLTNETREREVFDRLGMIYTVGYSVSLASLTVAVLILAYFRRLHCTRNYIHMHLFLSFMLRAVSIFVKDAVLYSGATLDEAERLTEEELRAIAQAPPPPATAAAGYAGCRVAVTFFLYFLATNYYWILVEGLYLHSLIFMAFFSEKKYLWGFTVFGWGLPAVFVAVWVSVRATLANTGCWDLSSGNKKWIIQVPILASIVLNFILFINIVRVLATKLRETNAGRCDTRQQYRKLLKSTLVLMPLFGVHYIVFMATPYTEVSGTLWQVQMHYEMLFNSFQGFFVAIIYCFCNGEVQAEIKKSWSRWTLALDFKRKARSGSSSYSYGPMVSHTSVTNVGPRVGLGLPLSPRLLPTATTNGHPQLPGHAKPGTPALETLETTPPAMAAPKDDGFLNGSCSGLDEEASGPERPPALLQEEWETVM
Text: The assays employ HEK-293 cells that have been engineered to express the appropriate receptor. GloSensor-based detection of cAMP provides a read-out of receptor activation.
(§1) For PTHR1 activation and all the binding data, data represent mean±s.e.m from three independent measurements; For PTHR2 activation, data represent mean±s.e.m from four independent measurements. Curves were fit to the data using a four-parameter sigmoidal dose-response equation.
For cAMP dose-response assays, monolayers of confluent HEK 293 cells were pre-incubated with buffer containing d-luciferin (0.5 mM) in 96 well plates at room temperature until a stable baseline level of luminescence was established (30 min). Varying concentrations of agonist were then added, and the time course of luminescence response was recorded using a Perkin Elmer plate reader following α/β-peptide addition.

PTHR2 = PTHR2 (Homo sapiens, UniProt P49190); test: PTHR2 activation, cAMP production (GloSensor) in HEK293 cells; assay type: cell-based; design: expressed in transfected cells; key to PTHR2 Activation: Derivative EC50/PTH EC50: *** denotes poor tolerance of β amino acid for PTHR2 activation; conditions: for EC50: HEK-293 cells, GloSensor cAMP, read-out: EC50 (nM) of PTHR2 Activation; for PTHR2 Activation: Derivative EC50/PTH EC50: normalized to EC50 of PTH(1-34)-NH2 ([…] printed), cAMP production
Chain of PTHR2 (P49190 25-550): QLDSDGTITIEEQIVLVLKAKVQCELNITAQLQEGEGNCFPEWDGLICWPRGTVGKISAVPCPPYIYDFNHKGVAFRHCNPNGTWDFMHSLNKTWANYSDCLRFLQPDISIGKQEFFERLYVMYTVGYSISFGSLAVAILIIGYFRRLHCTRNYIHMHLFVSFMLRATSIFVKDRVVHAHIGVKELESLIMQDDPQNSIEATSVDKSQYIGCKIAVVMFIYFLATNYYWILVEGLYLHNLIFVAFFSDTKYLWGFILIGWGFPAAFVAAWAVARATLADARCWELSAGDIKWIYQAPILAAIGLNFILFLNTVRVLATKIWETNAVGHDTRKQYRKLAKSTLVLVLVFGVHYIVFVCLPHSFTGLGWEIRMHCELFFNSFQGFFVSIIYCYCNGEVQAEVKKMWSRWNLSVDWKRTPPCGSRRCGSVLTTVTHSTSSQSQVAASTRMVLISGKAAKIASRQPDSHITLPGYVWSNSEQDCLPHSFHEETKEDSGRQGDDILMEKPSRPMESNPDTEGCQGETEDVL
Text: The assays employ HEK-293 cells that have been engineered to express the appropriate receptor. GloSensor-based detection of cAMP provides a read-out of receptor activation. […] (Carter, P. H. et al. Actions of the Small Molecule Ligands SW106 and AH-3960 on the Type-1 Parathyroid Hormone Receptor. Molecular Endocrinology 29, 307-321 (2015).)
as §1, with “FIGS. 10A and 10B depict dose-response curves of PTHR1 activation (FIG. 10A) and PTHR2 activation (FIG. 10B) in HEK293 cells stably expressing PTHR1 or PTHR2. For PTHR1” for “For PTHR1”

[1] = HEK-293 cells, GloSensor cAMP, read-out: EC50 (nM) of PTHR1 Activation
[2] = Table 8, hPTHR1, read-out: PTHR1 EC50

Structure (SMILES) | EC50 (PTHR1; [1]) [nM] | EC50 (PTHR1; [2]) [nM] | PTHR1 Activation: Derivative EC50/PTH EC50 (PTHR1) | EC50 (PTHR2) [nM] | PTHR2 Activation: Derivative EC50/PTH EC50 (PTHR2)
CC[C@H](C)[C@H](NC(=O)[C@@H](CCC(=O)O)CNC(=O)[C@H](CO)NC(=O)[C@@H](NC(=O)[C@@H](N)CO)C(C)C)C(=O)N[C@@H](CCC(N)=O)C(=O)N[C@@H](CC(C)C)C(=O)N[C@@H](CCSC)C(=O)N[C@@H](Cc1c[nH]cn1)C(=O)N[C@@H](CC(N)=O)C(=O)N[C@@H](CC(C)C)C(=O)NCC(=O)N[C@@H](CCCCN)C(=O)N[C@@H](Cc1c[nH]cn1)C(=O)N[C@@H](CC(C)C)C(=O)N[C@@H](CC(N)=O)C(=O)N[C@@H](CO)C(=O)N[C@@H](CCSC)C(=O)N[C@@H](CCC(=O)O)C(=O)N[C@@H](CCCNC(=N)N)C(=O)N[C@H](C(=O)N[C@@H](CCC(=O)O)C(=O)N[C@@H](Cc1c[nH]c2ccccc12)C(=O)N[C@@H](CC(C)C)C(=O)N[C@@H](CCCNC(=N)N)C(=O)N[C@@H](CCCCN)C(=O)N[C@@H](CCCCN)C(=O)N[C@@H](CC(C)C)C(=O)N[C@@H](CCC(N)=O)C(=O)N[C@@H](CC(=O)O)C(=O)N[C@H](C(=O)N[C@@H](Cc1c[nH]cn1)C(=O)N[C@@H](CC(N)=O)C(=O)N[C@@H](Cc1ccccc1)C(N)=O)C(C)C)C(C)C [SEQ. ID. NO: 33] (H-SVS[X4]IQLMHNLGKHLNSMERVEWLRKKLQDVHNF-NH2; N-terminus assumed) | 10.8 ± 0.47 | > 100 | 28.42 | > 100 | ***
CC[C@H](C)[C@H](NC(=O)[C@H](CCC(=O)O)CNC(=O)[C@H](CO)NC(=O)[C@@H](NC(=O)[C@@H](N)CO)C(C)C)C(=O)N[C@@H](CCC(N)=O)C(=O)N[C@@H](CC(C)C)C(=O)N[C@@H](CCSC)C(=O)N[C@@H](Cc1c[nH]cn1)C(=O)N[C@@H](CC(N)=O)C(=O)N[C@@H](CC(C)C)C(=O)NCC(=O)N[C@@H](CCCCN)C(=O)N[C@@H](Cc1c[nH]cn1)C(=O)N[C@@H](CC(C)C)C(=O)N[C@@H](CC(N)=O)C(=O)N[C@@H](CO)C(=O)N[C@@H](CCSC)C(=O)N[C@@H](CCC(=O)O)C(=O)N[C@@H](CCCNC(=N)N)C(=O)N[C@H](C(=O)N[C@@H](CCC(=O)O)C(=O)N[C@@H](Cc1c[nH]c2ccccc12)C(=O)N[C@@H](CC(C)C)C(=O)N[C@@H](CCCNC(=N)N)C(=O)N[C@@H](CCCCN)C(=O)N[C@@H](CCCCN)C(=O)N[C@@H](CC(C)C)C(=O)N[C@@H](CCC(N)=O)C(=O)N[C@@H](CC(=O)O)C(=O)N[C@H](C(=O)N[C@@H](Cc1c[nH]cn1)C(=O)N[C@@H](CC(N)=O)C(=O)N[C@@H](Cc1ccccc1)C(N)=O)C(C)C)C(C)C [SEQ. ID. NO: 25] (H-SVS[X6]IQLMHNLGKHLNSMERVEWLRKKLQDVHNF-NH2; N-terminus assumed) | 22.9 ± 1.89 | – | 60.26 | > 1000 | ***
CC[C@H](C)[C@H](NC(=O)[C@H](CCC(=O)O)NC(=O)[C@H](CO)NC(=O)[C@H](CNC(=O)[C@@H](N)CO)C(C)C)C(=O)N[C@@H](CCC(N)=O)C(=O)N[C@@H](CC(C)C)C(=O)N[C@@H](CCSC)C(=O)N[C@@H](Cc1c[nH]cn1)C(=O)N[C@@H](CC(N)=O)C(=O)N[C@@H](CC(C)C)C(=O)NCC(=O)N[C@@H](CCCCN)C(=O)N[C@@H](Cc1c[nH]cn1)C(=O)N[C@@H](CC(C)C)C(=O)N[C@@H](CC(N)=O)C(=O)N[C@@H](CO)C(=O)N[C@@H](CCSC)C(=O)N[C@@H](CCC(=O)O)C(=O)N[C@@H](CCCNC(=N)N)C(=O)N[C@H](C(=O)N[C@@H](CCC(=O)O)C(=O)N[C@@H](Cc1c[nH]c2ccccc12)C(=O)N[C@@H](CC(C)C)C(=O)N[C@@H](CCCNC(=N)N)C(=O)N[C@@H](CCCCN)C(=O)N[C@@H](CCCCN)C(=O)N[C@@H](CC(C)C)C(=O)N[C@@H](CCC(N)=O)C(=O)N[C@@H](CC(=O)O)C(=O)N[C@H](C(=O)N[C@@H](Cc1c[nH]cn1)C(=O)N[C@@H](CC(N)=O)C(=O)N[C@@H](Cc1ccccc1)C(N)=O)C(C)C)C(C)C [SEQ. ID. NO: 31] | 6.97 ± 1 | 4.72 ± 1.04 | 18.34 | 4.72 ± 1.04 | 5.43
CC[C@H](C)[C@H](NC(=O)[C@H](CCC(=O)O)NC(=O)[C@H](CO)NC(=O)[C@@H](NC(=O)[C@H](CN)CO)C(C)C)C(=O)N[C@@H](CCC(N)=O)C(=O)N[C@@H](CC(C)C)C(=O)N[C@@H](CCSC)C(=O)N[C@@H](Cc1c[nH]cn1)C(=O)N[C@@H](CC(N)=O)C(=O)N[C@@H](CC(C)C)C(=O)NCC(=O)N[C@@H](CCCCN)C(=O)N[C@@H](Cc1c[nH]cn1)C(=O)N[C@@H](CC(C)C)C(=O)N[C@@H](CC(N)=O)C(=O)N[C@@H](CO)C(=O)N[C@@H](CCSC)C(=O)N[C@@H](CCC(=O)O)C(=O)N[C@@H](CCCNC(=N)N)C(=O)N[C@H](C(=O)N[C@@H](CCC(=O)O)C(=O)N[C@@H](Cc1c[nH]c2ccccc12)C(=O)N[C@@H](CC(C)C)C(=O)N[C@@H](CCCNC(=N)N)C(=O)N[C@@H](CCCCN)C(=O)N[C@@H](CCCCN)C(=O)N[C@@H](CC(C)C)C(=O)N[C@@H](CCC(N)=O)C(=O)N[C@@H](CC(=O)O)C(=O)N[C@H](C(=O)N[C@@H](Cc1c[nH]cn1)C(=O)N[C@@H](CC(N)=O)C(=O)N[C@@H](Cc1ccccc1)C(N)=O)C(C)C)C(C)C [SEQ. ID. NO: 30] (X11-VSEIQLMHNLGKHLNSMERVEWLRKKLQDVHNF-NH2) | – | 1.55 ± 0.3 | – | – | –
CC[C@H](C)[C@H](NC(=O)C[C@H](CCC(=O)O)NC(=O)[C@H](CO)NC(=O)[C@@H](NC(=O)[C@@H](N)CO)C(C)C)C(=O)N[C@@H](CCC(N)=O)C(=O)N[C@@H](CC(C)C)C(=O)N[C@@H](CCSC)C(=O)N[C@@H](Cc1c[nH]cn1)C(=O)N[C@@H](CC(N)=O)C(=O)N[C@@H](CC(C)C)C(=O)NCC(=O)N[C@@H](CCCCN)C(=O)N[C@@H](Cc1c[nH]cn1)C(=O)N[C@@H](CC(C)C)C(=O)N[C@@H](CC(N)=O)C(=O)N[C@@H](CO)C(=O)N[C@@H](CCSC)C(=O)N[C@@H](CCC(=O)O)C(=O)N[C@@H](CCCNC(=N)N)C(=O)N[C@H](C(=O)N[C@@H](CCC(=O)O)C(=O)N[C@@H](Cc1c[nH]c2ccccc12)C(=O)N[C@@H](CC(C)C)C(=O)N[C@@H](CCCNC(=N)N)C(=O)N[C@@H](CCCCN)C(=O)N[C@@H](CCCCN)C(=O)N[C@@H](CC(C)C)C(=O)N[C@@H](CCC(N)=O)C(=O)N[C@@H](CC(=O)O)C(=O)N[C@H](C(=O)N[C@@H](Cc1c[nH]cn1)C(=O)N[C@@H](CC(N)=O)C(=O)N[C@@H](Cc1ccccc1)C(N)=O)C(C)C)C(C)C [SEQ. ID. NO: 41] | – | – | – | 60.1 ± 9.82 | –
CC[C@H](C)[C@@H](CC(=O)N[C@@H](CCC(N)=O)C(=O)N[C@@H](CC(C)C)C(=O)N[C@@H](CCSC)C(=O)N[C@@H](Cc1cnc[nH]1)C(=O)N[C@@H](CC(N)=O)C(=O)N[C@@H](CC(C)C)C(=O)NCC(=O)N[C@@H](CCCCN)C(=O)N[C@@H](Cc1cnc[nH]1)C(=O)N[C@@H](CC(C)C)C(=O)N[C@@H](CC(N)=O)C(=O)N[C@@H](CO)C(=O)N[C@@H](CCSC)C(=O)N[C@@H](CCC(=O)O)C(=O)N[C@@H](CCCNC(=N)N)C(=O)N[C@H](C(=O)N[C@@H](CCC(=O)O)C(=O)N[C@@H](Cc1c[nH]c2ccccc12)C(=O)N[C@@H](CC(C)C)C(=O)N[C@@H](CCCNC(=N)N)C(=O)N[C@@H](CCCCN)C(=O)N[C@@H](CCCCN)C(=O)N[C@@H](CC(C)C)C(=O)N[C@@H](CCC(N)=O)C(=O)N[C@@H](CC(=O)O)C(=O)N[C@H](C(=O)N[C@@H](Cc1cnc[nH]1)C(=O)N[C@@H](CC(N)=O)C(=O)N[C@@H](Cc1ccccc1)C(N)=O)C(C)C)C(C)C)NC(=O)[C@H](CCC(=O)O)NC(=O)[C@H](CO)NC(=O)[C@@H](NC(=O)[C@@H](N)CO)C(C)C [SEQ. ID. NO: 42] | 3.4 ± 1.22 | – | – | – | –
